Target: T1, BcPPNE (Bacillus cereus, UniProt Q74NK7)
T1 construct: gene BCE_A0238; weak tetramer in solution
T1 sequence (Q74NK7 1-195): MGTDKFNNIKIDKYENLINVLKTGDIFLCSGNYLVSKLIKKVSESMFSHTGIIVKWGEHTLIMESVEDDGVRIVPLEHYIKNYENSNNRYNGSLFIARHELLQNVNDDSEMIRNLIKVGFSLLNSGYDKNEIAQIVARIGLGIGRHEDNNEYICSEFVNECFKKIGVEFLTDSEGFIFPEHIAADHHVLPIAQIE
Experiment: Thermofluor (thermal shift)
Assay type: binding
Conditions: no shift value printed

SMILES | Thermofluor (thermal shift) | Thermofluor (thermal shift) (crystals soaked at 1 mM showed no ligand density, L-Lys remained bound)
N=C(N)NCCC[C@H](N)C(=O)O [L-arginine] | Thermofluor experiments indicated that BcPPNE also binds L-arginine and O-phospho-L-serine | –
N[C@@H](COP(=O)(O)O)C(=O)O [O-phospho-L-serine] | – | Thermofluor experiments indicated that BcPPNE also binds L-arginine and O-phospho-L-serine

From publication PMC3142127, “Structural Analysis of Papain-Like NlpC/P60 Superfamily Enzymes with a Circularly Permuted Topology Reveals Potential Lipid Binding Sites” (PLoS ONE, 2011)
